# Laboratory results taken from patent US8729056B2, “Preventive and/or therapeutic agent of hand-foot syndrome” (Ono Pharmaceutical Co., Ltd., priority 2010, dated 2014).
# Legend:
# [1] = tested on: Hand-Foot Syndrome caused by sorafenib tosilate administration; assay: Cases 3-6: effect of anticholinergic drugs on Hand-Foot Syndrome caused by sorafenib tosilate in kidney cancer patients; format: in vivo, human
# Text: (§1) In the present invention, the preventive and/or treatment effect of the anticholinergic drug against Hand-Foot Syndrome can be evaluated, for example, by the criteria of Hand-Foot Syndrome in Table 1, Table 2, and Table 3 as shown below. Table 1 is the criteria proposed by Blum, and appeared on page 485-493 in volume 17 of Journal Clinical Oncology published in 1999. Grade 0 is not referred to in this table, but it is understood as grade 0 if no symptom is observed. Table 2 is the National Cancer Institute-Common Toxicity Criteria Version 2.0 (NCI-CTC v2.0), and Table 3 is the National Cancer Institute-Common Terminology Criteria for Adverse Events Version 3.0 (NCI-CTCAE v3.0). Grade 0 is also not referred to in Table 3, but it is understood as grade 0 if no symptom is observed.
# We examined the effect of imidafenacin in a patient with kidney cancer who developed Hand-Foot Syndrome caused by sorafenib tosilate administration (sorafenib 800 mg/day).
# We examined the effect of imidafenacin in a patient with kidney cancer who developed Hand-Foot Syndrome caused by sorafenib tosilate administration.
# From this point, Imidafenacin 0.1 mg was orally administered to the patient twice a day in addition to the urea ointment.
# We examined the effect of solifenacin succinate in a patient with kidney cancer who developed Hand-Foot Syndrome caused by sorafenib tosilate administration (sorafenib 800 mg/day).
# We examined the effect of tolterodine tartrate in a patient with kidney cancer who developed Hand-Foot Syndrome caused by sorafenib tosilate administration.
# [2] = compared with tolterodine; Pharmacology and Toxicology Vol. 81, 1997; cited from earlier work
# [3] = sweat from patients with Hand-Foot Syndrome administered the drug; cited from earlier work
# [4] = WO1999/58478; cited from earlier work
# [5] = tested on: Hand-Foot Syndrome caused by sunitinib malate administration; assay: Case 2: effect of imidafenacin on Hand-Foot Syndrome caused by sunitinib malate in a kidney cancer patient; format: in vivo, human; settings: imidafenacin combined with urea ointment, heparinoid ointment and clobetasol propionate ointment, after eight days of such treatment
# Text: as §1
# [6] = tested on: Hand-Foot Syndrome; settings: patients with highest Hand-Foot Syndrome grade of 3; on average; Phase 2 clinical study in Japan; cited from earlier work
compound,measurement,setting,value
"O=C(O[C@H]1CN2CCC1CC2)N1CCc2ccccc2[C@@H]1c1ccccc1 [solifenacin succinate, (3R)-1-Azabicyclo[2.2.2]oct-3-yl(1S)-1-phenyl-3,4-dihydroisoquinoline-2(1H)-carboxylate]",recurrence of Hand-Foot Syndrome,"[1]; case 5, continuous administration of solifenacin succinate after full recovery",prevented
same,recovery from Hand-Foot Syndrome,"[1]; case 5, solifenacin succinate 5 mg orally once a day, started at grade 2, 28 days after beginning",full recovery
Cc1nc(-c2ccccc2)nc(SCc2ccc(Cl)cc2)c1CO [5-hydroxymethyl derivative],anticholinergic activity,[2],equivalent to tolterodine
COc1cccc2c1C(=O)c1c(O)c3c(c(O)c1C2=O)C[C@@](O)(C(=O)CO)C[C@@H]3O[C@H]1C[C@H](N)[C@H](O)[C@H](C)O1 [doxorubicin],drug substance in sweat,[3],detected
Cc1ncc(CO)c(CO)c1O.Cl [pyridoxine hydrochloride],change of Hand-Foot Syndrome,"[1]; case 6, grade 3, urea ointment in addition to pyridoxine hydrochloride, sorafenib 800 mg/day, without tolterodine tartrate",no improvements
CNC(=O)c1cc(Oc2ccc(NC(=O)Nc3ccc(Cl)c(C(F)(F)F)c3)cc2)ccn1 [sorafenib tosilate],drug substance in sweat,[3],not detected
"CC(C)C(=O)Oc1ccc(CO)cc1[C@H](CCN(C(C)C)C(C)C)c1ccccc1 [Fesoterodine, 2-[(1R)-3-(dipropan-2-ylamino)-1-phenylpropyl]-4-(hydroxymethyl)phenyl 2-methylpropanoate]",metabolism after oral administration,[4],rapidly is metabolized to the 5-hydroxymethyl derivative
"Cc1nccn1CCC(C(N)=O)(c1ccccc1)c1ccccc1 [imidafenacin, 4-(2-Methyl-1H-imidazole-1-yl)-2,2-diphenylbutanamide]",recurrence of Hand-Foot Syndrome,"[1]; case 3, after full recovery, continuous administration of imidafenacin and the moisturizing agent",prevented
same,recovery from Hand-Foot Syndrome,"[1]; case 3, imidafenacin continued in combination with heparinoid cream, after 22 days",full recovery
same,recovery from Hand-Foot Syndrome,[5],full recovery
CCCCCOC(=O)Nc1nc(=O)n([C@@H]2O[C@H](C)[C@@H](O)[C@H]2O)cc1F [capecitabine],period for recovery of Hand-Foot Syndrome after interruption,[6],about two to three
